The text below walks through data of US20080274061A1, “Method for Treating a Restless Limb Disorder” (priority 2007, published 2008).

The subject of data set [1] is subjects with idiopathic RLS. The data set can be described thus: Clinical trial: subject-rated severity of RLS sensory symptoms during Suggested Immobilization Tests. In kind it is in vivo, human. As to conditions: for onset of action after administration: doses of 124 μg and 247 μg, intranasal; for maximum mean reduction from baseline in severity scores: single delivery, 0-10 scale. How it is done:
This example relates to a randomized, double-blind, placebo-controlled parallel-group proof-of-concept trial which assessed the efficacy, safety and tolerability of ascending doses of rotigotine nasal spray for the treatment of acute symptoms of RLS in subjects with idiopathic RLS. This was evaluated by subject rating of severity of symptoms (sensory symptoms) on a numeric symptoms severity scale and by the Periodic Limb Movement (PLM) index (motor symptoms) as measured by actigraphy following triggering of symptoms by immobilization. […] Subjects randomized to the “placebo group” received a single delivery of matching placebo nasal spray on each treatment day. […] It has been shown that immobilization results in worsening of both motor and sensory components of RLS symptoms. […] On each treatment day, the trial medication was administered 30 minutes after the start of the pre-dose SIT-0 or as soon as the subject's severity score reaches 5 on the numeric symptom severity scale, whichever is sooner. The last scoring prior to dosing is defined as the baseline value for each individual subject. • 1. […] PLM during Wakefulness Index (PLMWI) for each SIT and for specified time sections of each SIT (PLM during awake epochs/h, motor symptoms) was evaluated based on PLM measurements by means of actigraphy, recorded over the entire duration of the SIT period (pre dose and post dose SIT-0 to SIT-6, approximately 4.5 hours). Severity of symptoms in the legs was assessed by subject ratings using a numeric symptoms severity scale at the start of each pre-dose and post-dose SIT-0 to SIT-6 and every 5 minutes during each SIT. Scores on the scale range from 0 (‘no symptoms’) to 10 (‘very severe’).

Data set [2] can be described thus: Comparative storage test of aqueous rotigotine HCl solution with/without α-cyclodextrin. In kind it is physicochemical. As to conditions: storage at 60° C. for 8 weeks, solution of 1.6 mg/ml with α-cyclodextrin.
The nature of data set [3]: Maximum solubility in aqueous cyclodextrin solution at room temperature, isocratic HPLC. In kind it is physicochemical. As to conditions: aqueous solution and aqueous solutions containing α- or β-cyclodextrin. How it is done:
The concentration was determined by isocratic HPLC analysis. HPLC column LiChroCART 75×4 mm, Superspher 60 RP-select B 5 μm (Merck), column temperature: 30° C., mobile phase:water/acetonitrile/methanesulfonic acid (65/35/0.05 v/v/v), flow rate: 2 ml/min, injection volume: 50 μl, detection at 220 nm, retention time approx. 1.5 min. The concentration was determined by use of an external reference solution having known concentration.

The conditions of data set [4]: orally (perorally) administered, first-pass metabolism in the liver; cited from earlier work.
For data set [5] the following is noted: effect of glycerol, in vitro permeation assays; cited from earlier work.
Data set [6] concerns subjects with idiopathic RLS. The data set can be described thus: Clinical trial: PLM during Wakefulness Index (PLMWI) by actigraphy during SITs. In kind it is in vivo, human. The settings on record: highest dose (247 μg) nasal spray. Here is the method: This example relates to a randomized, double-blind, placebo-controlled parallel-group proof-of-concept trial which assessed the efficacy, safety and tolerability of ascending doses of rotigotine nasal spray for the treatment of acute symptoms of RLS in subjects with idiopathic RLS. This was evaluated by subject rating of severity of symptoms (sensory symptoms) on a numeric symptoms severity scale and by the Periodic Limb Movement (PLM) index (motor symptoms) as measured by actigraphy following triggering of symptoms by immobilization. […] Subjects randomized to the “placebo group” received a single delivery of matching placebo nasal spray on each treatment day. • 1. […] PLM during Wakefulness Index (PLMWI) for each SIT and for specified time sections of each SIT (PLM during awake epochs/h, motor symptoms) was evaluated based on PLM measurements by means of actigraphy, recorded over the entire duration of the SIT period (pre dose and post dose SIT-0 to SIT-6, approximately 4.5 hours). RLS is usually associated with involuntary PLM occurring in wakefulness (PMLW) and sleep (PMLS) in 80-85% of RLS patients. […] A central reader was used to standardize PLM evaluation of the actigraphy measurements performed during the SIT period. […]

The conditions of data set [7]: buccal, nasal or rectal administration to rats as HCl salt, compared with oral dosing; cited from earlier work.

The structures appear in SMILES notation. Where a name gives a salt, the structure may show the parent alone. Read-outs that look alike come from different tables or passages of the source.

For the molecule `CCCN(CCc1cccs1)[C@H]1CCc2c(O)cccc2C1` [Rotigotine HCl], the “onset of action after administration” value in data set [1] amounted to 10 min. The “decrease in the rotigotine concentration” value in data set [2] was -0.07 mg/mL.

Turning to `CCCN(CCc1cccs1)[C@H]1CCc2c(O)cccc2C1` [Rotigotine base], the “solubility (in words)” value in data set [3] is on record as “practically insoluble”.

`CCCN(CCc1cccs1)[C@H]1CCc2c(O)cccc2C1` [rotigotine, (−)-5,6,7,8-tetrahydro-6-[propyl[2-(2-thienyl)ethyl]amino]-1-naphthol]: the “maximum mean reduction from baseline in severity scores” value in data set [1] (62 μg nasal spray) is −0.8 points; in data set [1] (124 μg nasal spray), −2.0 points; in data set [1] (247 μg nasal spray), −2.3 points. Also, the “decrease in the mean severity scores” value in data set [1] (doses of 124 μg and 247 μg nasal spray, SIT-1 through SIT-6, 0-10 scale) was “approximately 2 points”. Moreover, in data set [1], the “onset of action after administration” value is 10 min. Moreover, the “bioavailability (in words)” value in data set [4] is “close to zero”; in data set [7], “improved bioavailability”. In data set [5], the “absorption through bovine nasal mucosa (in words)” value was “enhance absorption”. Further, the “decrease from baseline in the PLMWI” value in data set [6] is “approximately 10 points”.
